In article PMC4106271 (Journal of Medicinal Chemistry, 2014):
Like-named read-outs stand apart in the source and are kept apart here.

Legend:
[1] = target: T1, α1β2γ2S GABAA receptors (Homo sapiens, UniProt P14867+P47870); test: Two-microelectrode voltage clamp, IGABA modulation, α1β2γ2S; format: cell-based; details: for activation at 100 µM / modulation of IGABA (%): 100 μM compound, GABA EC3–7, Xenopus laevis oocytes, mean ± SEM; for nH: Hill coefficient of concentration–response curve; for EC50: IGABA enhancement, GABA EC3–7, Xenopus oocytes
T1 construct: expressed in transfected cells; host or cells: Xenopus laevis oocytes injected with cRNA (pCMV cDNA templates)
Procedure: Preparation of stage V–VI oocytes from X. laevis and synthesis of capped runoff poly(A) cRNA transcripts from linearized cDNA templates (pCMV vector) was performed as previously described.[49] […] Follicle membranes from isolated oocytes were enzymatically digested with 2 mg/mL collagenase (type 1A, Sigma–Aldrich, Vienna, Austria).
Selected oocytes were injected with 10–50 nL of DEPC-treated water (diethyl pyrocarbonate, Sigma, Vienna, Austria) containing the different GABAA cRNAs at a concentration of approximately 300–3000 pg·nL^–1·subunit^–1.
To ensure expression of the γ2S subunit in the case of α1/2/3/5β2/3γ2S receptors, cRNAs were mixed in a ratio of 1:1:10. […] The amount of cRNAs was determined by means of a NanoDrop ND-1000 (Kisker-Biotech, Steinfurt, Germany).
Oocytes were stored at +18 °C in modified ND96 solution (90 mM NaCl, 1 mM CaCl2, 1 mM KCl, 1 mM MgCl2·6H2O, and 5 mM HEPES [4-(2-hydroxyethyl)-1-piperazineethanesulfonic acid], pH 7.4, all from Sigma–Aldrich, Vienna, Austria).
Chloride currents through GABAA receptors (IGABA) were measured at room temperature (+21 ± 1 °C) by means of a two-microelectrode voltage clamp technique making use of a Turbo TEC-05X amplifier (npi electronic, Tamm, Germany). IGABA were elicited at a holding potential of –70 mV. Data acquisition was carried out by means of an Axon Digidata 1322A interface using pCLAMP v.10 (Molecular Devices, Sunnyvale, CA). The modified ND96 solution was used as bath solution.
GABA and the studied derivatives were applied by means of the ScreeningTool (npi electronic, Tamm, Germany) fast perfusion system as described previously.[50] To elicit IGABA, the chamber was perfused with 120 μL of GABA- or compound-containing solution at a volume rate of 300 μL/s.[34] Care was taken to account for possible slow recovery from increasing levels of desensitization in the presence of high drug concentrations. The duration of washout periods was therefore extended from 1.5 min (<10 μM compounds) to 30 min (≥10 μM compounds). Oocytes with maximal current amplitudes >3 μA were discarded to exclude voltage clamp errors.
Stimulation of chloride currents by modulators of the GABAA receptor was measured at a GABA concentration eliciting between 3% and 7% of the maximal current amplitude (EC3–7). The GABA EC3–7 was determined for each oocyte individually. Enhancement of the chloride current was defined as (IGABA+compd/IGABA) – 1, where IGABA+compd is the current response in the presence of a given compound and IGABA is the control GABA current. IGABA-max reflects the maximal IGABA enhancement. Concentration–response curves were generated and the data were fitted by nonlinear regression analysis using Origin Software (OriginLab Corp.). Data were fitted to the equation 1/(1 + (EC50/[compound])^nH), where nH is the Hill coefficient. […] Statistical significance was calculated by paired Student t-test with a confidence interval of <0.05.

[2] = target: T1, α1β2γ2S GABAA receptors; details: cited from earlier work

T1 sequence (P14867 28-456): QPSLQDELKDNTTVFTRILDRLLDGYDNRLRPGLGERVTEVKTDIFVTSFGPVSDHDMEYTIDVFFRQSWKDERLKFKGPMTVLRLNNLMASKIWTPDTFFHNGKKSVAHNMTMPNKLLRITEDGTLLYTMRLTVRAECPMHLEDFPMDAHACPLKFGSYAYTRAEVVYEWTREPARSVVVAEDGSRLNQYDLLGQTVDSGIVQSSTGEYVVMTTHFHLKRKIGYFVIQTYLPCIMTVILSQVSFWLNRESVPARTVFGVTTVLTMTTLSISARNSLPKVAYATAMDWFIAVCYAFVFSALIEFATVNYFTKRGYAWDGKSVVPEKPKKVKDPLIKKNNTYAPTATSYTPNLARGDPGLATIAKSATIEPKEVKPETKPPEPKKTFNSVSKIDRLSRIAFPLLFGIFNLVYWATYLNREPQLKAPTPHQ
T1 sequence (P47870 26-512): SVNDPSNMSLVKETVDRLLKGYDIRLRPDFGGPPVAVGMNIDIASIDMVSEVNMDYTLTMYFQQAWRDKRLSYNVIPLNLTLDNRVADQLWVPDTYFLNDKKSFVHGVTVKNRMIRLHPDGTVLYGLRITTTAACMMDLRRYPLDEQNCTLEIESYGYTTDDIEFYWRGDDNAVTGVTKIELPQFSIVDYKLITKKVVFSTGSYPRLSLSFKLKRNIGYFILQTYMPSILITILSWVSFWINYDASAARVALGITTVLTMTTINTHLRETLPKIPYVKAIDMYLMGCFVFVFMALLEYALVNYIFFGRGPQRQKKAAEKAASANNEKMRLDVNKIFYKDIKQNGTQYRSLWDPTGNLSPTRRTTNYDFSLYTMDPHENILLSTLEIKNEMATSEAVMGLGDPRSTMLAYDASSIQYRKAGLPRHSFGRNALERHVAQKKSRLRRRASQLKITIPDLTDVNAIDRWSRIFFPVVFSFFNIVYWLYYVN
T1 sequence (P18507 40-467 isoform P18507-1 partner limits assumed): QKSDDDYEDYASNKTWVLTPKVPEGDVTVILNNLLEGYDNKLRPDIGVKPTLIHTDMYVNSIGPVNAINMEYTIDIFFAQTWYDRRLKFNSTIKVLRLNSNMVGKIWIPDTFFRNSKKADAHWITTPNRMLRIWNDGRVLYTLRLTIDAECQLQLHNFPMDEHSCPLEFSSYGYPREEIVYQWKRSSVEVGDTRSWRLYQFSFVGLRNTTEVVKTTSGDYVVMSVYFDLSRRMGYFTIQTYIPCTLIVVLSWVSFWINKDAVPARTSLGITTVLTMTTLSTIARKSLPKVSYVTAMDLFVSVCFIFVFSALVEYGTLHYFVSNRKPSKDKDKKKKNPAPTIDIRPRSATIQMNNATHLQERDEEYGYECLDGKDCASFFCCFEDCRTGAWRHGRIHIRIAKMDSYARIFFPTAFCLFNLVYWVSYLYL

CSc1ccc(NC(=O)/C=C/C=C/c2ccc3c(c2)OCO3)cc1 [Compound 1]
activation at 100 µM [1]: 0%

COc1cc(NC(=O)/C=C/C=C/c2ccc3c(c2)OCO3)cc(OC)c1OC [Compound 2]
activation at 100 µM [1]: 10%

O=C(/C=C/C=C/c1ccc2c(c1)OCO2)Nc1c(F)cc(F)cc1F [Compound 3]
activation at 100 µM [1]: 5 ± 5%

CN(C)CCNC(=O)/C=C/C=C/c1ccc2c(c1)OCO2 [Compound 4]
activation at 100 µM [1]: -15%

COc1ccc(CCNC(=O)/C=C/C=C/c2ccc3c(c2)OCO3)cc1OC [Compound 5]
activation at 100 µM [1]: -2%

O=C(/C=C/C=C/c1ccc2c(c1)OCO2)Nc1cccnc1 [Compound 6]
activation at 100 µM [1]: -7%

O=C(/C=C/C=C/c1ccc2c(c1)OCO2)Nc1ccc(Cl)cn1 [Compound 7]
activation at 100 µM [1]: 8 ± 7%

O=C(/C=C/C=C/c1ccc2c(c1)OCO2)NCCCc1ccccc1 [Compound 8]
activation at 100 µM [1]: -8%

O=C(/C=C/C=C/c1ccc2c(c1)OCO2)Nc1ccccc1O [Compound 9]
activation at 100 µM [1]: 0%

O=C(/C=C/C=C/c1ccc2c(c1)OCO2)Nc1ccc([N+](=O)[O-])cc1O [Compound 10]
activation at 100 µM [1]: 1 ± 7%

CCCCNC(=O)/C=C/C=C/c1ccc2c(c1)OCO2 [Compound 11]
activation at 100 µM [1]: 51 ± 11%

O=C(/C=C/C=C/c1ccc2c(c1)OCO2)NCCC(c1ccccc1)c1ccccc1 [Compound 12]
activation at 100 µM [1]: -6%

O=C(/C=C/C=C/c1ccc2c(c1)OCO2)NC1CCCC1 [Compound 13]
activation at 100 µM [1]: 33 ± 17%

O=C(/C=C/C=C/c1ccc2c(c1)OCO2)NCc1ccccc1 [Compound 14]
activation at 100 µM [1]: 0%

CCCCCCCCCCNC(=O)/C=C/C=C/c1ccc2c(c1)OCO2 [Compound 15]
activation at 100 µM [1]: -1%

O=C(/C=C/C=C/c1ccc2c(c1)OCO2)NC12CC3CC(CC(C3)C1)C2 [Compound 16]
activation at 100 µM [1]: -6%

O=C(/C=C/c1ccc2c(c1)OCO2)N1CCCCC1 [Compound 17]
activation at 100 µM [1]: 79 ± 8%

CC(C)N(C(=O)/C=C/c1ccc2c(c1)OCO2)C(C)C [Compound 18]
activation at 100 µM [1]: 66 ± 30%

CN(C)C(=O)/C=C/C=C/c1ccc2c(c1)OCO2 [Compound 20]
activation at 100 µM [1]: 61 ± 28%

CC(C)N(C(=O)/C=C/C=C/c1ccc2c(c1)OCO2)C(C)C [Compound 22]
nH [1]: 2.3 ± 0.2
EC50 [1]: 86.7 ± 13.9 µM

CCCCCCN(CCCCCC)C(=O)/C=C/C=C/c1ccc2c(c1)OCO2 [Compound 26]
activation at 100 µM [1]: 0%

O=C(/C=C/C=C/c1ccc2c(c1)OCO2)N(C1CCCCC1)C1CCCCC1 [Compound 27]
activation at 100 µM [1]: 13 ± 13%

O=C(/C=C/C=C/c1ccc2c(c1)OCO2)N1CCOCC1 [Compound 29]
activation at 100 µM [1]: 0%

CN1CCN(C(=O)/C=C/C=C/c2ccc3c(c2)OCO3)CC1 [Compound 31]
activation at 100 µM [1]: -20%

CCN1CCN(C(=O)/C=C/C=C/c2ccc3c(c2)OCO3)CC1 [Compound 32]
activation at 100 µM [1]: -5%

CC1CCN(C(=O)/C=C/C=C/c2ccc3c(c2)OCO3)CC1 [Compound 35]
nH [1]: 1.9 ± 0.3
EC50 [1]: 67.7 ± 11 µM

O=C(/C=C/C=C/c1ccc2c(c1)OCO2)N1CCCC(O)C1 (centres unmarked) [Compound 36]
activation at 100 µM [1]: 33 ± 9%

O=C(/C=C/C=C/c1ccc2c(c1)OCO2)N1CCC(O)CC1 [Compound 37]
activation at 100 µM [1]: 26 ± 14%

O=C(/C=C/C=C/c1ccc2c(c1)OCO2)N1CCN(CCOCCO)CC1 [Compound 40]
activation at 100 µM [1]: 12 ± 8%

COc1ccccc1N1CCN(C(=O)/C=C/C=C/c2ccc3c(c2)OCO3)CC1 [Compound 41]
activation at 100 µM [1]: 5 ± 5%

O=C(/C=C/C=C/c1ccc2c(c1)OCO2)N1CCN(Cc2ccccc2)CC1 [Compound 42]
activation at 100 µM [1]: 48 ± 12%

O=C(/C=C/C=C/c1ccc2c(c1)OCO2)N(CC(F)(F)F)CC(F)(F)F [Compound 43]
nH [1]: 1.6 ± 0.2
EC50 [1]: 23.1 ± 3.3 µM

S=C(/C=C/C=C/c1ccc2c(c1)OCO2)N1CCCCC1 [Compound 44]
activation at 100 µM [1]: 17 ± 17%

C(/C=C/c1ccc2c(c1)OCO2)=C\CN1CCCCC1 [Compound 45]
activation at 100 µM [1]: -16%

O=C(c1ccc(-c2ccc3c(c2)OCO3)cc1)N1CCCCC1 [Compound 46]
activation at 100 µM [1]: 42%
modulation of IGABA (%) [1]: 42 ± 1 %

CCCN(CCC)C(=O)c1ccc(-c2ccc3c(c2)OCO3)cc1 [Compound 47]
nH [1]: 1.2 ± 0.2
EC50 [1]: 70.8 ± 21.1 µM

CCCCN(CCCC)C(=O)c1ccc(-c2ccc3c(c2)OCO3)cc1 [Compound 48]
activation at 100 µM [1]: 49 ± 7%

CC(C)N(C(=O)c1ccc(-c2ccc3c(c2)OCO3)cc1)C(C)C [Compound 49]
activation at 100 µM [1]: 30 ± 15%

CCCN(CCC)C(=O)c1cccc(-c2ccc3c(c2)OCO3)c1 [Compound 51, 3-(Benzo[d][1,3]dioxol-5-yl)-N,N-dipropylbenzamide]
activation at 100 µM [1]: 280%
modulation of IGABA (%) [1]: 280 ± 52 %

CCCCN(CCCC)C(=O)c1cccc(-c2ccc3c(c2)OCO3)c1 [Compound 52]
activation at 100 µM [1]: 63 ± 12%

CC(C)N(C(=O)c1cccc(-c2ccc3c(c2)OCO3)c1)C(C)C [Compound 53]
nH [1]: 1.5 ± 0.2
EC50 [1]: 55.3 ± 17.6 µM

O=C(c1ccccc1-c1ccc2c(c1)OCO2)N1CCCCC1 [Compound 54]
activation at 100 µM [1]: 34 ± 8%

CCCN(CCC)C(=O)c1ccccc1-c1ccc2c(c1)OCO2 [Compound 55]
activation at 100 µM [1]: 79 ± 24%

CCCCN(CCCC)C(=O)c1ccccc1-c1ccc2c(c1)OCO2 [Compound 56]
nH [1]: 1.2 ± 0.0
EC50 [1]: 36.8 ± 2 µM

CC(C)N(C(=O)c1ccccc1-c1ccc2c(c1)OCO2)C(C)C [Compound 57]
activation at 100 µM [1]: 15 ± 15%

O=C(c1ccc(-c2ccc3c(c2)OCO3)s1)N1CCCCC1 [Compound 58]
activation at 100 µM [1]: -5%

CCCCN(CCCC)C(=O)c1ccc(-c2ccc3c(c2)OCO3)s1 [Compound 60]
activation at 100 µM [1]: 51 ± 21%

CC(C)N(C(=O)c1ccc(-c2ccc3c(c2)OCO3)s1)C(C)C [Compound 61]
activation at 100 µM [1]: 11 ± 2%

O=C(c1cccc2c(-c3ccc4c(c3)OCO4)cccc12)N1CCCCC1 [Compound 62, [5-(Benzo[d][1,3]dioxol-5-yl)naphthalen-1-yl](piperidin-1-yl)methanone]
activation at 100 µM [1]: 13 ± 2%

CCCN(CCC)C(=O)c1cccc2c(-c3ccc4c(c3)OCO4)cccc12 [Compound 63]
activation at 100 µM [1]: 12 ± 4%

CCCCN(CCCC)C(=O)c1cccc2c(-c3ccc4c(c3)OCO4)cccc12 [Compound 64]
activation at 100 µM [1]: 4 ± 4%

CCCN(CCC)C(=O)/C=C/c1cccc2cc3c(cc12)OCO3 [Compound 66]
activation at 100 µM [1]: 67 ± 23%

CCCCN(CCCC)C(=O)/C=C/c1cccc2cc3c(cc12)OCO3 [Compound 67]
activation at 100 µM [1]: 18 ± 9%

O=C(/C=C/c1ccc2cc3c(cc2c1)OCO3)N1CCCCC1 [Compound 68]
activation at 100 µM [1]: -1%

CCCN(CCC)C(=O)/C=C/c1ccc2cc3c(cc2c1)OCO3 [Compound 69]
activation at 100 µM [1]: 74 ± 1%

CCCCN(CCCC)C(=O)/C=C/c1ccc2cc3c(cc2c1)OCO3 [Compound 70]
activation at 100 µM [1]: 32%
modulation of IGABA (%) [1]: 32 ± 12%

O=C(c1cccc2cc3c(cc12)OCO3)N1CCCCC1 [Compound 71]
activation at 100 µM [1]: 32 ± 10%

CCCN(CCC)C(=O)c1cccc2cc3c(cc12)OCO3 [Compound 72]
nH [1]: 1.9 ± 0.2
EC50 [1]: 102 ± 11.2 µM

CCCCN(CCCC)C(=O)c1cccc2cc3c(cc12)OCO3 [Compound 73]
nH [1]: 2.7 ± 0.2
EC50 [1]: 31.8 ± 5.3 µM

CC(C)CN(CC(C)C)C(=O)c1cccc2cc3c(cc12)OCO3 [Compound 74]
activation at 100 µM [1]: 60 ± 17%

O=C(c1ccc2cc3c(cc2c1)OCO3)N1CCCCC1 [Compound 75]
activation at 100 µM [1]: 58 ± 29%

O=C(/C=C/C=C/c1ccc2c(c1)OCO2)N1CCCCC1 [piperine, 1-piperoylpiperidine]
potentiation of IGABA ([2]; 100 μM): 226% ± 26%
nH ([2]; Hill coefficient): 1.5 ± 0.2
